According to patent publication US20130011528A1 (priority 2010, published 2013):

Experiments:
[1] = molecular target: glucose oxidase (GOD, EC 1.1.3.4.) (Aspergillus niger, UniProt P13006); assay: GOD biosensor: oxygen decrease during glucose oxidation in hydrolysed milk with added antibiotic; assay type: biochemical; settings: benzylpenicillin concentration 1000 ppb in milk, glucose and galactose 1.4 mM, 38° C.
[2] = molecular target: galactose oxidase (GAO, EC 1.1.3.9) (Gibberella zeae, UniProt P0CS93); assay type: biochemical; settings: GAO biosensor, benzylpenicillin concentration 1000 ppb in milk, glucose and galactose 1.4 mM, 38° C.
galactose oxidase (GAO, EC 1.1.3.9), sequence (P0CS93 42-680 limits assumed): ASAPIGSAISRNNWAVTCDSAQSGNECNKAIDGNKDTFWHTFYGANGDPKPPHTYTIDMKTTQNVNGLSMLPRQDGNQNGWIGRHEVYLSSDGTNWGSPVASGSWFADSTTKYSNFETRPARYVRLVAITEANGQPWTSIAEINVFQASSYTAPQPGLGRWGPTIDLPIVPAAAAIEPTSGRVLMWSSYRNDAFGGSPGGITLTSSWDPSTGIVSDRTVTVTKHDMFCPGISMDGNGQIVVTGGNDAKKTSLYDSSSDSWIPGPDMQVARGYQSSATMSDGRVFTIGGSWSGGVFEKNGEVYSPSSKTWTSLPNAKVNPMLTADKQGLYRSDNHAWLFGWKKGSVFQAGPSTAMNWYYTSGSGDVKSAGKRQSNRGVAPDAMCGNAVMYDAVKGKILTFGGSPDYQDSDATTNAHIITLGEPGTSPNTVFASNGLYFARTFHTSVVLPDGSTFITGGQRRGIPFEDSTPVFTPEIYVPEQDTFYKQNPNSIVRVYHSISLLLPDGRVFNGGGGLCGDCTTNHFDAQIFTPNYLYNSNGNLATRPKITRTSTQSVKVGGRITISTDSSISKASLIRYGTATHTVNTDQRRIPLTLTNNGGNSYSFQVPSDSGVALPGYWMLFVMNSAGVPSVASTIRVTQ

glucose oxidase (GOD, EC 1.1.3.4.), sequence (P13006 17-605, species assumed): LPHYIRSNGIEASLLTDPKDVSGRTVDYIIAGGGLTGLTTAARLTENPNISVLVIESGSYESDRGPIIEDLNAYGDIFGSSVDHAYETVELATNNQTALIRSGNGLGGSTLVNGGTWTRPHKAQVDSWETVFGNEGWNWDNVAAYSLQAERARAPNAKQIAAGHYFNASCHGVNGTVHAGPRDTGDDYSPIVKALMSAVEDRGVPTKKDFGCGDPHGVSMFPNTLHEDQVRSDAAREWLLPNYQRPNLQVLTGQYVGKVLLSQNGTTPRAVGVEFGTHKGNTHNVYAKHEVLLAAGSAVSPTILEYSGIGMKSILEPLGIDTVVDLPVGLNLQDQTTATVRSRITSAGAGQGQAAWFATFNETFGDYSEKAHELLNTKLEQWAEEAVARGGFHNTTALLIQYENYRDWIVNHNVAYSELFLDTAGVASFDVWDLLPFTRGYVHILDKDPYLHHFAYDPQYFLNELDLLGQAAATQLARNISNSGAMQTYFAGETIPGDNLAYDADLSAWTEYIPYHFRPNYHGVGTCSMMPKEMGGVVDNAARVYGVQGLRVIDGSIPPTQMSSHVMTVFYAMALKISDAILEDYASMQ

## CC1(C)S[C@@H]2[C@H](NC(=O)Cc3ccccc3)C(=O)N2[C@H]1C(=O)O [benzylpenicillin]
[1]; antibiotics-free milk A=0.159
  steady state parameter A: 0.141
[1]; antibiotics-free milk B=222.2
  kinetic parameter B: 146.0 s⁻¹
[2]; antibiotics-free milk A=0.640
  steady state parameter A: 0.435
[2]; antibiotics-free milk B=53.0
  kinetic parameter B: 97.8 s⁻¹
